Values after ≈ are worked out from the molar mass of the structure shown.
Tests used:
[1] = Cmax in rat at 8 mg/kg, po; format: ADME, organism-based; set-up: dose 8 mg/kg, route oral; conditions: in vivo
[2] = target: Dipeptidyl peptidase 9 (Homo sapiens, UniProt Q86TI2); experiment: Inhibition of human recombinant DPP9 pre-incubated with compound for 15 mins before substrate addition by luminescence assay
[3] = Volume of distribution at steady state in rat at 4 mg/kg, iv; format: ADME, organism-based; set-up: dose 4 mg/kg, route intravenous; conditions: in vivo, read-out: Vdss
[4] = Clearance in rat at 4 mg/kg, iv; format: ADME, organism-based; set-up: dose 4 mg/kg, route intravenous; conditions: in vivo
[5] = Half life in rat at 4 mg/kg, iv; format: ADME, organism-based; set-up: dose 4 mg/kg, route intravenous; conditions: in vivo
[6] = Half life in rat at 8 mg/kg, po; format: ADME, organism-based; set-up: dose 8 mg/kg, route oral; conditions: in vivo
[7] = Oral bioavailability in rat at 8 mg/kg; format: ADME, organism-based; conditions: in vivo
[8] = target: Dipeptidyl peptidase 8 (Homo sapiens, UniProt Q6V1X1); experiment: Inhibition of human recombinant DPP8 pre-incubated with compound for 15 mins before substrate addition by luminescence assay
Sequence of Dipeptidyl peptidase 8 (Q6V1X1 whole entry): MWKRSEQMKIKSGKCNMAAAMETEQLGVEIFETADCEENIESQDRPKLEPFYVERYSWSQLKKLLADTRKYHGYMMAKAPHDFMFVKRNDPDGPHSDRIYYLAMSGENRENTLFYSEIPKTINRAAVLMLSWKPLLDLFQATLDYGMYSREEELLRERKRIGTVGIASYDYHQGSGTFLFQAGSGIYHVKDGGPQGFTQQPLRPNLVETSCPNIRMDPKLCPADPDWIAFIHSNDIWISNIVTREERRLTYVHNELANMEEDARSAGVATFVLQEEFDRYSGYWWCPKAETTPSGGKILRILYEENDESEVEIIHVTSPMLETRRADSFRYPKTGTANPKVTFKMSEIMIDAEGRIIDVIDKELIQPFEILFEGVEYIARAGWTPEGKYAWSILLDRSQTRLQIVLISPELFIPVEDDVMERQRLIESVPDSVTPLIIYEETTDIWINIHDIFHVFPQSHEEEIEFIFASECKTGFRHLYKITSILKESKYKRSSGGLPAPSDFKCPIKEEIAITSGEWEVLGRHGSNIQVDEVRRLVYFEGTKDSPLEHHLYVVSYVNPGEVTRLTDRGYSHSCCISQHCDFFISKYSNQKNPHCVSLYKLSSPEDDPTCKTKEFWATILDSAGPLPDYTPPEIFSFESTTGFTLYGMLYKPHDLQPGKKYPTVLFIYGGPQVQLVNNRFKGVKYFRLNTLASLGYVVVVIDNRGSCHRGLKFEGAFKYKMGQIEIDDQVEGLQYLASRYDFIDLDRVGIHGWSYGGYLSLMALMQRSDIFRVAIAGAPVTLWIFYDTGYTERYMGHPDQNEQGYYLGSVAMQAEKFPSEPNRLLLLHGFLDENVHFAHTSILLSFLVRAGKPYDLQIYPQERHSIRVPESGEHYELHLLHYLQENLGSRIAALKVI

[9] = AUClast in rat at 8 mg/kg, po; format: ADME, organism-based; set-up: time 0 - last, dose 8 mg/kg, route oral; conditions: plasma
[10] = Plasma concentration in C57BL/6 mouse at 1 mg/kg, po administered as single dose 30 mins before orally glucose challenge and measured 20 mins post oral glucose challenge; format: ADME, organism-based; set-up: dose 1 mg/kg, route oral
[11] = species on record: Mus musculus; experiment: animal or person; conditions: C57BL/6, Plasma, po, read-out: MED
[12] = Half life in rat at 10 mg/kg, iv; format: ADME, organism-based; set-up: dose 10 mg/kg, route intravenous; conditions: in vivo
[13] = Plasma concentration in C57BL/6 mouse at 3 mg/kg, po administered as single dose 30 mins before orally glucose challenge and measured 20 mins post oral glucose challenge; format: ADME, organism-based; set-up: dose 3 mg/kg, route oral
[14] = Half life in dog at 5 mg/kg, po; format: ADME, organism-based, Canis lupus familiaris; set-up: dose 5 mg/kg, route oral; conditions: in vivo
[15] = Protein binding in human; format: ADME, organism-based; conditions: in vivo, read-out: PB (converted)
[16] = Cmax in monkey at 10 mg/kg, po; format: ADME, organism-based, Macaca mulatta; set-up: dose 10 mg/kg, route oral; conditions: rhesus monkey, in vivo
[17] = target: Cytochrome P450 2C19 (Homo sapiens, UniProt P33261); experiment: Inhibition of CYP2C19 (unknown origin); format: ADME
Sequence of Cytochrome P450 2C19 (P33261 whole entry): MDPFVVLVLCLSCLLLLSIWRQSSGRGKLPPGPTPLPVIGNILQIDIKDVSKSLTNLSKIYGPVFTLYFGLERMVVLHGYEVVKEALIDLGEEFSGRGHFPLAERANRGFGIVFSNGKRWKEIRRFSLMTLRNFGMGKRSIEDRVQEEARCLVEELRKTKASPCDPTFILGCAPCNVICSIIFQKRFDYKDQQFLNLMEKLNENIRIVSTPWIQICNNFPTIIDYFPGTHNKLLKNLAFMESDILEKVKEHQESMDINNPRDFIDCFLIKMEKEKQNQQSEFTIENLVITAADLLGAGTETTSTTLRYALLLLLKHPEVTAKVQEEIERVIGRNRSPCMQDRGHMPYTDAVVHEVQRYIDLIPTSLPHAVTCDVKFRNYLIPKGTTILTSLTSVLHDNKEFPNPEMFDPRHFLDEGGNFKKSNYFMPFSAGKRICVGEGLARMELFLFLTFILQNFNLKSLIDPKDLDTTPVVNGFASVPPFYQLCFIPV

[18] = target: Cytochrome P450 2C9 (Homo sapiens, UniProt P11712); experiment: Inhibition of CYP2C9 (unknown origin); format: ADME
Sequence of Cytochrome P450 2C9 (P11712 whole entry): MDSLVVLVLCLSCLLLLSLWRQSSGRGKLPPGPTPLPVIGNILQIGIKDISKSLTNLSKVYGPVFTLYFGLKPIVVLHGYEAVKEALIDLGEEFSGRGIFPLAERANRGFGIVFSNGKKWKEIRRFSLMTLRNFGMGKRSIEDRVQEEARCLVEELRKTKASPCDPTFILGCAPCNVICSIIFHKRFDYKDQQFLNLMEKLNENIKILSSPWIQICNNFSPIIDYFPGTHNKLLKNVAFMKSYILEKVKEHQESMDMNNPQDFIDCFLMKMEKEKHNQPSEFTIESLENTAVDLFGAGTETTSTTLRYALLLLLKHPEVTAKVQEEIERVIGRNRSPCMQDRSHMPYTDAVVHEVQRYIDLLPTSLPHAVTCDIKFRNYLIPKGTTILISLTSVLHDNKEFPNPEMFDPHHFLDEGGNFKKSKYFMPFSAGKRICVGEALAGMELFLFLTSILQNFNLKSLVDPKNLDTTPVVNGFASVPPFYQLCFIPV

[19] = Cmax in dog at 5 mg/kg, po; format: ADME, organism-based, Canis lupus familiaris; set-up: dose 5 mg/kg, route oral; conditions: in vivo
[20] = Volume of distribution at steady state in dog at 6.25 mg/kg, iv; format: ADME, organism-based, Canis lupus familiaris; set-up: dose 6.25 mg/kg, route intravenous; conditions: in vivo, read-out: Vdss
[21] = test system: Mus musculus; experiment: Antidiabetic activity in C57BL/6 mouse assessed as reduction in plasma glucose AUC (0 to 120 mins) at 0.3 mg/kg, po administered as single dose 30 mins before orally glucose challenge by oral glucose tolerance test; format: functional; conditions: C57BL/6, Plasma
[22] = target: Voltage-gated inwardly rectifying potassium channel KCNH2 (Homo sapiens, UniProt Q12809); experiment: Inhibition of human ERG
Sequence of Voltage-gated inwardly rectifying potassium channel KCNH2 (Q12809 whole entry): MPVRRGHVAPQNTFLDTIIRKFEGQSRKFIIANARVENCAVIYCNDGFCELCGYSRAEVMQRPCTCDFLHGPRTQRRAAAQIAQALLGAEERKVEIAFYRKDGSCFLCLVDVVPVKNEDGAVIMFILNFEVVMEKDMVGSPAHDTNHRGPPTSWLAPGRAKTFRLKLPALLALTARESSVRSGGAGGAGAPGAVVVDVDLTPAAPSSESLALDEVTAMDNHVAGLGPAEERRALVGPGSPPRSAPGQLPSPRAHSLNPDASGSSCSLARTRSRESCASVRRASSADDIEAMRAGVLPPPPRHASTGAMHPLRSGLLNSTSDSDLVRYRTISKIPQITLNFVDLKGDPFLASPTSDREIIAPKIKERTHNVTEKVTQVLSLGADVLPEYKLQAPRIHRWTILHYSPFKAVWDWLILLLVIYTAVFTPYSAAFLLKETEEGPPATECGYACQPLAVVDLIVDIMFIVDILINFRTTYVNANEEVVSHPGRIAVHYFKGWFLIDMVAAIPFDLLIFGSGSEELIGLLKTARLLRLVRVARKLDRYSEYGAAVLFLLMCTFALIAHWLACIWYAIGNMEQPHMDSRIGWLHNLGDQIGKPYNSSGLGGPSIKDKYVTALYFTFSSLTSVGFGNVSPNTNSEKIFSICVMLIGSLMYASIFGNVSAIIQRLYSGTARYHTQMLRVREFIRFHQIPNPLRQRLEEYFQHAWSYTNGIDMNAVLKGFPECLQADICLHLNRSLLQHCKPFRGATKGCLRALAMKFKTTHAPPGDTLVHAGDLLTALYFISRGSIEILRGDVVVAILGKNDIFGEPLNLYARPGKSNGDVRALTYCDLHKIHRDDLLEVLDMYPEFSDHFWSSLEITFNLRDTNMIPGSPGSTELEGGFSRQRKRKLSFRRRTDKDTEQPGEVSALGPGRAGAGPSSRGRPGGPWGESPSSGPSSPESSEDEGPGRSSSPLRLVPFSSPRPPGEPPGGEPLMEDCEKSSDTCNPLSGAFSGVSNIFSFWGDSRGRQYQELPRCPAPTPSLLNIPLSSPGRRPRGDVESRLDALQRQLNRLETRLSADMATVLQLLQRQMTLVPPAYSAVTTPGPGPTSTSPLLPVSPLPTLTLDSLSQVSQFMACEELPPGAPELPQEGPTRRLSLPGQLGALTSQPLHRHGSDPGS

[23] = test system: Salmonella typhimurium; experiment: Genotoxicity in Salmonella typhimurium at 5000 ug/plate by Ames test; format: toxicity, organism-based; conditions: salmonella enterica subsp. enterica serovar typhimurium
[24] = test system: Mus musculus; experiment: Inhibition of DPP4 activity in C57BL/6 mouse at 0.3 mg/kg, po administered as single dose 30 mins before orally glucose challenge and measured 20 mins post oral glucose challenge by luminescence assay; format: functional
[25] = Permeability from basolateral to apical side in human Caco2 cells; format: ADME, cell-based; conditions: Caco-2, read-out: permeability
[26] = Half life in monkey at 5 mg/kg, iv; format: ADME, organism-based, Macaca mulatta; set-up: dose 5 mg/kg, route intravenous; conditions: rhesus monkey, in vivo
[27] = test system: Mus musculus; experiment: Increase in plasma GLP1 level in C57BL/6 mouse at 1 mg/kg, po administered as single dose 30 mins before orally glucose challenge and measured 20 mins post oral glucose challenge by ELISA method (reference value: 4 pM); format: functional
[28] = Half life in dog at 6.25 mg/kg, iv; format: ADME, organism-based, Canis lupus familiaris; set-up: dose 6.25 mg/kg, route intravenous; conditions: in vivo
[29] = Half life in monkey at 10 mg/kg, po; format: ADME, organism-based, Macaca mulatta; set-up: dose 10 mg/kg, route oral; conditions: rhesus monkey, in vivo
[30] = Volume of distribution at steady state in monkey at 5 mg/kg, iv; format: ADME, organism-based, Macaca mulatta; set-up: dose 5 mg/kg, route intravenous; conditions: rhesus monkey, in vivo, read-out: Vdss
[31] = test system: Mus musculus; experiment: Toxicity in db/db mouse assessed as effect on body weight administered with food formulated compound for 28 days; format: organism-based; conditions: in vivo, po, 672 h
[32] = test system: Mus musculus; experiment: Inhibition of DPP4 activity in C57BL/6 mouse at 3 mg/kg, po administered as single dose 30 mins before orally glucose challenge and measured 20 mins post oral glucose challenge by luminescence assay; conditions: C57BL/6, po, read-out: INH
[33] = Half life in rat at 10 mg/kg, po; format: ADME, organism-based; set-up: dose 10 mg/kg, route oral; conditions: in vivo
[34] = Protein binding in dog; format: ADME, organism-based, Canis lupus familiaris; conditions: in vivo, read-out: PB (converted)
[35] = Solubility in pH 4.5 solution; format: physicochemical
[36] = species on record: Mus musculus; experiment: animal or person; conditions: C57BL/6, Plasma, po, read-out: INH
[37] = test system: Mus musculus; experiment: Antidiabetic activity in C57BL/6 mouse assessed as reduction in plasma glucose AUC (0 to 120 mins) at 1 mg/kg, po administered as single dose 30 mins before orally glucose challenge by oral glucose tolerance test; format: functional; conditions: C57BL/6, Plasma
[38] = test system: Mus musculus; experiment: Increase in plasma GLP1 level in C57BL/6 mouse at 0.3 mg/kg, po administered as single dose 30 mins before orally glucose challenge and measured 20 mins post oral glucose challenge by ELISA method (reference value: 4 pM); format: functional
[39] = AUClast in rat at 10 mg/kg, po; format: ADME, organism-based; set-up: time 0 - last, dose 10 mg/kg, route oral; conditions: plasma
[40] = Plasma concentration in C57BL/6 mouse at 0.3 mg/kg, po administered as single dose 30 mins before orally glucose challenge and measured 20 mins post oral glucose challenge; format: ADME, organism-based; set-up: dose 0.3 mg/kg, route oral
[41] = Solubility in pH 1.2 solution; format: physicochemical
[42] = test system: Canis familiaris; experiment: Cardiotoxicity in conscious dog assessed as induction of QT prolongation up to 20 mg/kg; format: toxicity, organism-based, Canis lupus familiaris; set-up: dose 20 mg/kg; conditions: in vivo
[43] = test system: Mus musculus; experiment: Inhibition of DPP4 activity in C57BL/6 mouse at 0.1 mg/kg, po administered as single dose 30 mins before orally glucose challenge and measured 20 mins post oral glucose challenge by luminescence assay; format: functional
[44] = AUClast in dog at 5 mg/kg, po; format: ADME, organism-based, Canis lupus familiaris; set-up: time 0 - last, dose 5 mg/kg, route oral; conditions: plasma
[45] = test system: Mus musculus; experiment: Antidiabetic activity in C57BL/6 mouse assessed as plasma glucose level at 0.1 mg/kg, po administered as single dose 30 mins before orally glucose challenge by oral glucose tolerance test (reference value: 15.6 mM); format: functional
[46] = test system: Mus musculus; experiment: Antidiabetic activity in C57BL/6 mouse assessed as plasma glucose level at 1 mg/kg, po administered as single dose 30 mins before orally glucose challenge by oral glucose tolerance test (reference value: 15.6 mM); format: functional
[47] = Oral bioavailability in rat at 10 mg/kg; format: ADME, organism-based; conditions: in vivo
[48] = Plasma concentration in C57BL/6 mouse at 0.1 mg/kg, po administered as single dose 30 mins before orally glucose challenge and measured 20 mins post oral glucose challenge; format: ADME, organism-based; set-up: dose 0.1 mg/kg, route oral
[49] = target: Cytochrome P450 3A4 (Homo sapiens, UniProt P08684); experiment: Inhibition of CYP3A4 (unknown origin); format: ADME
Sequence of Cytochrome P450 3A4 (P08684 whole entry): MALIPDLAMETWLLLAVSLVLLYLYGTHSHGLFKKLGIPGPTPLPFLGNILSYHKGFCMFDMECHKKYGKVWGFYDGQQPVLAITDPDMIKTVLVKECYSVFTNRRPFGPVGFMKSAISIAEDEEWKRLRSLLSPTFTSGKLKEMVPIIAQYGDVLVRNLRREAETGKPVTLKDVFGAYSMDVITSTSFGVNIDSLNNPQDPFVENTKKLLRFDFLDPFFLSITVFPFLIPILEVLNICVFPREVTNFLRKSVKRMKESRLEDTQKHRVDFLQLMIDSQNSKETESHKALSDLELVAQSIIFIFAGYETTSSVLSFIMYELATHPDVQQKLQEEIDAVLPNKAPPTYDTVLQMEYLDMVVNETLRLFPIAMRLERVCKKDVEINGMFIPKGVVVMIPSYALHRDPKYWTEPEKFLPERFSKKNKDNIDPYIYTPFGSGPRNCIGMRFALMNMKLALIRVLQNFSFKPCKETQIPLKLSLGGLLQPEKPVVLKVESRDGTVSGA

[50] = test system: Mus musculus; experiment: Antidiabetic activity in C57BL/6 mouse assessed as plasma glucose level at 0.3 mg/kg, po administered as single dose 30 mins before orally glucose challenge by oral glucose tolerance test (reference value: 15.6 mM); format: functional
[51] = test system: Mus musculus; experiment: Inhibition of DPP4 activity in C57BL/6 mouse at 1 mg/kg, po administered as single dose 30 mins before orally glucose challenge and measured 20 mins post oral glucose challenge by luminescence assay; format: functional
[52] = Oral bioavailability in dog at 5 mg/kg; format: ADME, organism-based, Canis lupus familiaris; conditions: in vivo
[53] = Clearance in monkey at 5 mg/kg, iv; format: ADME, organism-based, Macaca mulatta; set-up: dose 5 mg/kg, route intravenous; conditions: rhesus monkey, in vivo
[54] = Clearance in dog at 6.25 mg/kg, iv; format: ADME, organism-based, Canis lupus familiaris; set-up: dose 6.25 mg/kg, route intravenous; conditions: in vivo
[55] = test system: Mus musculus; experiment: Increase in plasma GLP1 level in C57BL/6 mouse at 0.1 mg/kg, po administered as single dose 30 mins before orally glucose challenge and measured 20 mins post oral glucose challenge by ELISA method (reference value: 4 pM); format: functional
[56] = target: Cytochrome P450 2D6 (Homo sapiens, UniProt P10635); experiment: Inhibition of CYP2D6 (unknown origin); format: ADME
Sequence of Cytochrome P450 2D6 (P10635 whole entry): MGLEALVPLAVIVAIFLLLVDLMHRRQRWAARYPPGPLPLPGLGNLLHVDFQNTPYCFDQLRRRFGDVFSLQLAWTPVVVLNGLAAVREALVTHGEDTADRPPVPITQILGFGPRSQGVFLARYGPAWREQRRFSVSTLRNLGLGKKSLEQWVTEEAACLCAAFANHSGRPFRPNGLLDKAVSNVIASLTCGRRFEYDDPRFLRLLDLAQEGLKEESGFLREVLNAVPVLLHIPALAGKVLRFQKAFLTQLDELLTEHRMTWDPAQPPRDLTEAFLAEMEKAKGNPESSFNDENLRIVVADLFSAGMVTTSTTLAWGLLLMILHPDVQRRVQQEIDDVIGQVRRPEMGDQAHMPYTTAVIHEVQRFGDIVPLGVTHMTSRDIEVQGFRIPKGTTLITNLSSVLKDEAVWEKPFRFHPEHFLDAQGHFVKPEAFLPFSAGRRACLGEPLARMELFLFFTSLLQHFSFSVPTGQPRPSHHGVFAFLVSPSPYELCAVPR

[57] = Cmax in rat at 10 mg/kg, po; format: ADME, organism-based; set-up: dose 10 mg/kg, route oral; conditions: in vivo
[58] = Oral bioavailability in monkey at 10 mg/kg; format: ADME, organism-based, Macaca mulatta; conditions: rhesus monkey, in vivo
[59] = Toxicity in rat after 28 days; format: organism-based; conditions: in vivo
[60] = test system: Mus musculus; experiment: Antidiabetic activity in C57BL/6 mouse assessed as reduction in plasma glucose AUC (0 to 120 mins) at 0.1 mg/kg, po administered as single dose 30 mins before orally glucose challenge by oral glucose tolerance test; format: functional; conditions: C57BL/6, Plasma
[61] = Permeability from apical to basolateral side in human Caco2 cells; format: ADME, cell-based; conditions: Caco-2, read-out: permeability
[62] = AUClast in monkey at 10 mg/kg, po; format: ADME, organism-based, Macaca mulatta; set-up: dose 10 mg/kg, route oral, time 0 - last; conditions: rhesus monkey, plasma
[63] = Protein binding in rat; format: ADME, organism-based; conditions: in vivo, read-out: PB (converted)
[64] = Solubility in pH 6.8 solution; format: physicochemical

Sequence of Dipeptidyl peptidase 9 (Q86TI2 whole entry): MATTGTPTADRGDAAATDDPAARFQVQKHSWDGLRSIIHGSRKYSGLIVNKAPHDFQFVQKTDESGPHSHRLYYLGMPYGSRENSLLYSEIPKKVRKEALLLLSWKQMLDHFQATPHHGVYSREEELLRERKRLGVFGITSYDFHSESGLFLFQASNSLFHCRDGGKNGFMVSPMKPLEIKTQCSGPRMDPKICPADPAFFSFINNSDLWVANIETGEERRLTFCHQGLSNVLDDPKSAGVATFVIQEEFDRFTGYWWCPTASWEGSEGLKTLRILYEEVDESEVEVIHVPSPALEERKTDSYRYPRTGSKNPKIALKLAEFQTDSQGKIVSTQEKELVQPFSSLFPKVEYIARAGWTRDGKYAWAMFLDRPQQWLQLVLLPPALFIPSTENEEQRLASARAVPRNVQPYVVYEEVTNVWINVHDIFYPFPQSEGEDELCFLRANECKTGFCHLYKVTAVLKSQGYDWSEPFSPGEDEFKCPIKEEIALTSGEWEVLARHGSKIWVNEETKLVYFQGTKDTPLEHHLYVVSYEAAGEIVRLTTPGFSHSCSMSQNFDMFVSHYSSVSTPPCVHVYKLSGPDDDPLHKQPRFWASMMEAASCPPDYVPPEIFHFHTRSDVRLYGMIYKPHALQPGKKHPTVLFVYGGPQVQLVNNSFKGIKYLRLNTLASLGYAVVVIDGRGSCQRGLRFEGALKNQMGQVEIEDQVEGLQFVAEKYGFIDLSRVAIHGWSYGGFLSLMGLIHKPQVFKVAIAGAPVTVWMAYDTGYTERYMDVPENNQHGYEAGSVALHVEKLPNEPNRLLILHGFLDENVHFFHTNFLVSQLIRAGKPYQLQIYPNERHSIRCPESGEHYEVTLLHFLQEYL

Cn1c(=O)n(Cc2ccccc2C#N)c2c(N3CCC[C@@H](N)C3)ncnc21
Cmax [1]: 86 ng/mL | IC50 [2]: > 100 µM | Vd [3]: 2.78 L/kg | clearance [4]: 61.2 mL/min/kg | half-life [5]: 0.8 h | half-life [6]: 1.5 h | bioavailability [7]: 12% | IC50 [8]: > 100 µM | AUC(0-t) [9]: 249 ng·h/mL

Cc1cc(N2CCC[C@@H](N)C2)c2c(n1)n(C)c(=O)n2Cc1ccccc1C#N
concentration at 50 min [10]: 36.1 ng/mL | minimal effective dose [11]: 0.3 mg/kg | half-life [12]: 1.83 h | concentration at 20 min [13]: 129 ng/mL | half-life [14]: 1.3 h | fraction unbound [15]: 0.38 | Cmax [16]: 3030 ng/mL | INH [17]: > 30 µM | INH [18]: > 30 µM | Cmax [19]: 1360 ng/mL | Vd [20]: 2.46 L/kg | inhibition in vivo at 0.3 mg/kg [21]: 40% | INH [22]: > 25 µM | Activity [23]: Non-toxic | inhibition in vivo at 0.3 mg/kg [24]: 43.8% | Papp B→A [25]: 28 ×10⁻⁶ cm/s | half-life [26]: 3.68 h | Activity [27]: 6.9 pM | half-life [28]: 1.12 h | half-life [29]: 4.8 h | Vd [30]: 2.44 L/kg | Activity [31]: Non-toxic | inhibition in vivo at 3 mg/kg [32]: 82.1% | half-life [33]: 2.4 h | fraction unbound [34]: 0.26 | solubility [35]: 560 mg/mL (≈ 1490 mM) | inhibition in vivo at 3 mg/kg [36]: 65% | inhibition in vivo at 1 mg/kg [37]: 57% | Activity [38]: 5.7 pM | AUC(0-t) [39]: 3980 ng·h/mL | concentration at 20 min [40]: 10.3 ng/mL | solubility [41]: 560 mg/mL (≈ 1490 mM) | Activity [42]: Non-toxic | inhibition in vivo at 0.1 mg/kg [43]: 23.8% | AUC(0-t) [44]: 3630 ng·h/mL | Activity [45]: 14.1 mM | Activity [46]: 11.4 mM | bioavailability [47]: 97% | concentration at 20 min [48]: 3.9 ng/mL | INH [49]: > 30 µM | Activity [50]: 12.4 mM | inhibition in vivo at 1 mg/kg [51]: 71.2% | bioavailability [52]: 89% | clearance [53]: 11.2 mL/min/kg | clearance [54]: 35.3 mL/min/kg | Activity [55]: 5.7 pM | INH [56]: > 30 µM | Cmax [57]: 1250 ng/mL | bioavailability [58]: 86% | NOAEL at 672 h [59]: 150 mg/kg | inhibition in vivo at 0.1 mg/kg [60]: 3% | Papp A→B [61]: 9 ×10⁻⁶ cm/s | AUC(0-t) [62]: 12900 ng·h/mL | fraction unbound [63]: 0.58 | solubility [64]: 551 mg/mL (≈ 1460 mM)
